Consider 30 compounds from patent US10544150B2, “NK-3 receptor selective antagonist compounds, pharmaceutical composition and methods for use in NK-3 receptors mediated disorders” (Ogeda SA, priority 2010, dated 2020).

human NK-3 receptor, sequence (P29371 whole entry): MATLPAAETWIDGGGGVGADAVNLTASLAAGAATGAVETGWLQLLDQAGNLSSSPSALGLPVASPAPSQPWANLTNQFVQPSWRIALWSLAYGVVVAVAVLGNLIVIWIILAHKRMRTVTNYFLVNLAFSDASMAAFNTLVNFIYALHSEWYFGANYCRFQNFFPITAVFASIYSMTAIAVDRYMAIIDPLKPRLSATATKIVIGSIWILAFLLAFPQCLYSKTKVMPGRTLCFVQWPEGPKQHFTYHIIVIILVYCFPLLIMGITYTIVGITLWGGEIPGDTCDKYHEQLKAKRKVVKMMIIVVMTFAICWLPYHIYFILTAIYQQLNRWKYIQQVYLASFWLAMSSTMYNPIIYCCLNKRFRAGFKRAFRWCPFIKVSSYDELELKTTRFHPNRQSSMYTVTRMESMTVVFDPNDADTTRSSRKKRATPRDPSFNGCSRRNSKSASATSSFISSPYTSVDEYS

This test deals with human NK-3 receptor (Homo sapiens (Human), UniProt P29371). Kind of test: 3H-SB222200 binding competition assay with human NK-3 receptor. The conditions noted are these: 3H-SB222200 displacement, CHO cell membranes expressing human NK3 receptor; read-out: Ki range. The gist of the method:
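Membranes from CHO cells expressing human NK3 receptor incubated with 5 nM 3H-SB222200 and test compound in HEPES 25 mM/NaCl 0.1M/CaCl2 1 mM/MgCl2 5 mM/BSA 0.5%/saponin 10 μg/ml, pH 7.4. Bound radioligand counted after filtration; Ki calculated, reported in bands (+++ <500 nM to # >5 μM).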
One may read the Ki as a dissociation constant, usually derived from enzyme kinetics or from competition with a known ligand. As to `O=C(c1ccc(-c2cccs2)cc1)N1CCn2c(nnc2-c2nc(-c3ccc(F)cc3)no2)C1` [Compound 176, (3-(3-(4-fluorophenyl)-1,2,4-oxadiazol-5-yl)-5,6-dihydro-[1,2,4]triazolo[4,3-a]pyrazin-7(8H)-yl)(4-(thiophen-2-yl)phenyl)methanone], the Ki is under 500 nM.

Consider `C[C@@H]1c2nnc(-c3csc(-c4ccccc4)n3)n2CCN1C(=O)c1ccc(F)cc1` [Compound 45, (R)-(4-fluorophenyl)(8-methyl-3-(2-phenylthiazol-4-yl)-5,6-dihydro-[1,2,4]triazolo[4,3-a]pyrazin-7(8H)-yl)methanone], for which the Ki is under 500 nM.

As to `O=C(c1ccc(F)cc1)N1CCn2c(nnc2-c2csc(-c3ccc(N4CCCC4)cc3)n2)C1` [Compound 246, (4-fluorophenyl)(3-(2-(4-(pyrrolidin-1-yl)phenyl)thiazol-4-yl)-5,6-dihydro-[1,2,4]triazolo[4,3-a]pyrazin-7(8H)-yl)methanone], the Ki is under 500 nM. The result for `N#Cc1ccc(-c2nc(-c3nnc4n3CCN(C(=O)c3ccc(-c5cccs5)cc3)C4)cs2)cc1` [Compound 236, 4-(4-(7-(4-(thiophen-2-yl)benzoyl)-5,6,7,8-tetrahydro-[1,2,4]triazolo[4,3-a]pyrazin-3-yl)thiazol-2-yl)benzonitrile] reads under 500 nM; that for `O=C(c1ccc(F)cc1)N1CCn2c(nnc2-c2ccc3ccccc3n2)C1` [Compound 7, (4-fluorophenyl)(3-(quinolin-2-yl)-5,6-dihydro-[1,2,4]triazolo[4,3-a]pyrazin-7(8H)-yl)methanone], under 500 nM; that for `O=C(c1ccc(F)cc1)N1CCn2c(nnc2-c2csc(N3CCN(c4ccccc4)CC3)n2)C1` [Compound 34, (4-fluorophenyl)(3-(2-(4-phenylpiperazin-1-yl)thiazol-4-yl)-5,6-dihydro-[1,2,4]triazolo[4,3-a]pyrazin-7(8H)-yl)methanone], under 500 nM. The result for `Cc1nc(-c2ccccc2)sc1-c1nnc2n1CCN(C(=O)c1ccc(F)cc1)C2C` (stereo not drawn) [Compound 75, (4-fluorophenyl)(8-methyl-3-(4-methyl-2-phenylthiazol-5-yl)-5,6-dihydro-[1,2,4]triazolo[4,3-a]pyrazin-7(8H)-yl)methanone] reads 500 to 1000 nM; that for `O=C(c1ccc(F)cc1)N1CCn2c(nnc2-c2csc(-c3cccs3)n2)C1` [Compound 193, (4-fluorophenyl)(3-(2-(thiophen-2-yl)thiazol-4-yl)-5,6-dihydro-[1,2,4]triazolo[4,3-a]pyrazin-7(8H)-yl)methanone], under 500 nM; that for `O=C(c1cc(-c2ccc(C(F)(F)F)cc2)n[nH]1)N1CCn2c(nnc2-c2ccccn2)C1` [Compound 17, (3-(pyridin-2-yl)-5,6-dihydro-[1,2,4]triazolo[4,3-a]pyrazin-7(8H)-yl)(3-(4-(trifluoromethyl)phenyl)-1H-pyrazol-5-yl)methanone], 1000 to 5000 nM. The result for `CC(C)C1c2nnc(-c3csc(-c4ccccc4)n3)n2CCN1C(=O)c1ccc(F)cc1` (stereo not drawn) [Compound 43, (4-fluorophenyl)(8-isopropyl-3-(2-phenylthiazol-4-yl)-5,6-dihydro-[1,2,4]triazolo[4,3-a]pyrazin-7(8H)-yl)methanone] reads 1000 to 5000 nM; that for `Cn1nc(-c2ccccc2)cc1-c1nnc2n1CCN(C(=O)c1ccc(-c3cccs3)cc1)C2` [Compound 220, (3-(1-methyl-3-phenyl-1H-pyrazol-5-yl)-5,6-dihydro-[1,2,4]triazolo[4,3-a]pyrazin-7(8H)-yl)(4-(thiophen-2-yl)phenyl)methanone], under 500 nM. For the compound `C[C@H]1c2nnc(-c3ccc4ccccc4n3)n2CCN1C(=O)c1ccc(-c2cccs2)cc1` [Compound 163, (S)-(8-methyl-3-(quinolin-2-yl)-5,6-dihydro-[1,2,4]triazolo[4,3-a]pyrazin-7(8H)-yl)(4-(thiophen-2-yl)phenyl)methanone], the Ki lay within 500 to 1000 nM. For the compound `O=C(c1ccc(F)cc1)N1CCn2c(nnc2-c2csc(-c3ccc(C(F)(F)F)cc3)n2)C1` [Compound 24, (4-fluorophenyl)(3-(2-(4-(trifluoromethyl)phenyl)thiazol-4-yl)-5,6-dihydro-[1,2,4]triazolo[4,3-a]pyrazin-7(8H)-yl)methanone], the inhibition constant (Ki) is under 500 nM.

Consider `O=C(c1ccc(-c2cccs2)cc1)N1CCn2c(nnc2-c2ccc3ccccc3n2)C1` [Compound 69, (3-(quinolin-2-yl)-5,6-dihydro-[1,2,4]triazolo[4,3-a]pyrazin-7(8H)-yl)(4-(thiophen-2-yl)phenyl)methanone], for which the Ki was under 500 nM.

For `O=C(c1ccc(F)cc1)N1CCn2c(nnc2-c2csc(-c3cccc(F)c3)n2)C1` [Compound 206, (4-fluorophenyl)(3-(2-(3-fluorophenyl)thiazol-4-yl)-5,6-dihydro-[1,2,4]triazolo[4,3-a]pyrazin-7(8H)-yl)methanone], the inhibition constant Ki is 1000 to 5000 nM. The result for `CC1Cn2c(nnc2-c2csc(-c3ccc(F)cc3)n2)CN1C(=O)c1ccc(-c2cccs2)cc1` (stereo not drawn) [Compound 107, (3-(2-(4-fluorophenyl)thiazol-4-yl)-6-methyl-5,6-dihydro-[1,2,4]triazolo[4,3-a]pyrazin-7(8H)-yl)(4-(thiophen-2-yl)phenyl)methanone] reads 500 to 1000 nM; that for `O=C(c1ccc(-c2cccs2)cc1)N1CCn2c(nnc2-c2csc(-c3ccc(N4CCCC4)cc3)n2)C1` [Compound 245, (3-(2-(4-(pyrrolidin-1-yl)phenyl)thiazol-4-yl)-5,6-dihydro-[1,2,4]triazolo[4,3-a]pyrazin-7(8H)-yl)(4-(thiophen-2-yl)phenyl)methanone], under 500 nM; that for `C[C@@H]1c2nnc(-c3csc(N4CCOCC4)n3)n2CCN1C(=O)c1ccc(-c2cccs2)cc1` [Compound 136, (R)-(8-methyl-3-(2-morpholinothiazol-4-yl)-5,6-dihydro-[1,2,4]triazolo[4,3-a]pyrazin-7(8H)-yl)(4-(thiophen-2-yl)phenyl)methanone], under 500 nM. With `Cn1nc(-c2ccc(Cl)c(Cl)c2)cc1C(=O)N1CCn2c(nnc2-c2ccccn2)C1` [Compound 14, (3-(3,4-dichlorophenyl)-1-methyl-1H-pyrazol-5-yl)(3-(pyridin-2-yl)-5,6-dihydro-[1,2,4]triazolo[4,3-a]pyrazin-7(8H)-yl)methanone] the figure was 1000 to 5000 nM; with `COCC1CCCCN1c1nc(-c2nnc3n2CCN(C(=O)c2ccc(F)cc2)C3)cs1` (stereo not drawn) [Compound 277, (4-fluorophenyl)(3-(2-(2-(methoxymethyl)piperidin-1-yl)thiazol-4-yl)-5,6-dihydro-[1,2,4]triazolo[4,3-a]pyrazin-7(8H)-yl)methanone], over 5000 nM; with `CC1c2nnc(-c3csc(-c4ccc(F)cc4)n3)n2CCN1C(=O)c1ccc(F)cc1` (stereo not drawn) [Compound 70, (4-fluorophenyl)(3-(2-(4-fluorophenyl)thiazol-4-yl)-8-methyl-5,6-dihydro-[1,2,4]triazolo[4,3-a]pyrazin-7(8H)-yl)methanone], under 500 nM. With `C[C@H]1c2nnc(-c3csc(-c4ccc(F)cc4F)n3)n2CCN1C(=O)c1ccc(-c2cccs2)cc1` [Compound 165, (S)-(3-(2-(2,4-difluorophenyl)thiazol-4-yl)-8-methyl-5,6-dihydro-[1,2,4]triazolo[4,3-a]pyrazin-7(8H)-yl)(4-(thiophen-2-yl)phenyl)methanone] the figure was under 500 nM; with `CC1c2nnc(-c3csc(N4CCOCC4)n3)n2CCN1C(=O)c1ccc(-c2ccccc2)cc1` (stereo not drawn) [Compound 46, [1,1′-biphenyl]-4-yl(8-methyl-3-(2-morpholinothiazol-4-yl)-5,6-dihydro-[1,2,4]triazolo[4,3-a]pyrazin-7(8H)-yl)methanone], under 500 nM. For the compound `O=C(c1ccc(-c2cccs2)cc1)N1CCn2c(nnc2-c2nc(-c3ccc(F)cc3F)no2)C1` [Compound 177, (3-(3-(2,4-difluorophenyl)-1,2,4-oxadiazol-5-yl)-5,6-dihydro-[1,2,4]triazolo[4,3-a]pyrazin-7(8H)-yl)(4-(thiophen-2-yl)phenyl)methanone], the Ki is under 500 nM. In the case of `O=C(c1ccc(-c2ccccc2)cc1)N1CCn2c(nnc2-c2csc(-c3ccccc3)n2)C1` [Compound 26, [1,1′-biphenyl]-4-yl(3-(2-phenylthiazol-4-yl)-5,6-dihydro-[1,2,4]triazolo[4,3-a]pyrazin-7(8H)-yl)methanone], the Ki is under 500 nM. Regarding `O=C(C1CCC(c2ccccc2)CC1)N1CCn2c(nnc2-c2ccc3ccccc3n2)C1` (stereo not drawn) [Compound 93, (4-phenylcyclohexyl)(3-(quinolin-2-yl)-5,6-dihydro-[1,2,4]triazolo[4,3-a]pyrazin-7(8H)-yl)methanone], the Ki lay in the range of 1000 to 5000 nM. The result for `O=C(c1ccc(F)cc1)N1CCn2c(nnc2-c2csc(-c3ccccc3F)n2)C1` [Compound 180, (4-fluorophenyl)(3-(2-(2-fluorophenyl)thiazol-4-yl)-5,6-dihydro-[1,2,4]triazolo[4,3-a]pyrazin-7(8H)-yl)methanone] reads under 500 nM; that for `O=C(c1ccc(-c2cccs2)cc1)N1CCn2c(nnc2-c2csc(-c3ccncc3)n2)C1` [Compound 228, (3-(2-(pyridin-4-yl)thiazol-4-yl)-5,6-dihydro-[1,2,4]triazolo[4,3-a]pyrazin-7(8H)-yl)(4-(thiophen-2-yl)phenyl)methanone], under 500 nM. As to `O=C(c1ccc(F)cc1)N1CCn2c(nnc2-c2nc(-c3ccccc3)cs2)C1` [Compound 57, (4-fluorophenyl)(3-(4-phenylthiazol-2-yl)-5,6-dihydro-[1,2,4]triazolo[4,3-a]pyrazin-7(8H)-yl)methanone], the Ki is under 500 nM. With `O=C(c1ccc(-c2cccs2)cc1)N1CCn2c(nnc2-c2csc(-c3cccs3)n2)C1` [Compound 194, (4-(thiophen-2-yl)phenyl)(3-(2-(thiophen-2-yl)thiazol-4-yl)-5,6-dihydro-[1,2,4]triazolo[4,3-a]pyrazin-7(8H)-yl)methanone] the figure was under 500 nM.
